# Data as given in patent publication US6969593B2, “Method for the selective survival or selective growth of a target cell by the use of a conjugate, its use in therapeutics and/or diagnostics and the preparation of said conjugate” (priority 2000, dated 2005).
# Key:
# Assay type in all cases: cell-based, Escherichia coli
# TG1-fd Bla I7 [1] = test: Experiments with selective cultures: mixed culture, colonies counted on Tet dishes; conditions: t = 2 hours; for Bacteria.ml^−1 TG1-fd Bla 17 / % TG1-fd Bla 17: Table 1 results 1; for Bacteria.ml^−1 TG1-fd Bla 17 / Bacteria.ml^−1 TG1-fd Bla I7: complex + or − according to label; for Bacteria.ml^−1 TG1-fd Bla 17: t=0 1.58E+06; for % TG1-fd Bla 17 / % TG1-fd Bla I7: mixture with MM294-pET26b45; for % TG1-fd Bla 17: t=0 20.8%
# Procedure: (§1) 5 ml (OD=1) of the TG1-fd Bla I7 and the MM294-pET26b45 cultures are centrifuged (4000 RPM, 5 minutes) and twice washed in LB for finally being resolved in 5 ml sterile LB. Two cultures are mixed. 1 ml of this culture is diluted in 9 ml LB (5 erlenmeyers in parallell) and the necessary quantity of the ternary complex or the conjugate is added. During one hour at 37° C. incubation takes place whereafter penicilline is introduced in this culture medium (see table above) and agitation is performed during two hours at 37° C.
# (§2) Sampling is made at the start and the finish of the reaction which is diluted and put on Tet or Kan boxes. The incubation takes place all night at 37° C. Calculation of the colonies is made the morning after.
# (§3) Mixtures have been made of bacteria TG1-fd Bla […] and MM294-pET26b45. These mixtures have been brought into contact with the ternary complex and incubated during one hour by 37° C. to allow the triple complex to be formed on the bacteria. After this incubation penicillin is added in the culture medium and cultures grown in shaking suspensions for two hours at 37° C. Subsequently, these mixtures were plated on Tet dishes and Kan dishes and incubated overnight at 37° C. The next day, the number of colonies was counted.
# (§4) The inventors have also been working on the optimisation of the initial number added in the test of the different bacteria.
# MM294-pET26b45 [2] = test: Spectrophotometric follow up of the cultures (optical density at 600 nm); conditions: 200 and 800 mg.L^−1 of penicillin; with or without triple complex according to label; 37° C.
# Procedure: (§5) Cultures (15 ml, OD=1) of TG1-fd Bla I7 and of MM294-pET26b45 are centrifuged (4000 RPM, 5 minutes). The pellet is washed twice with LB and is resolved in 15 ml sterile LB. In all cases 1 ml of the culture is diluted in 9 ml LB (11 erlenmeyers). Then the necessary quantity of the triple complexes calculated for complete degradation of the penicillin in two hours incubation is added and inbucated one hour at 37° C. Then penicillin is introduced at the final concentrations as indicated in the table below and for two hours at 37° C.
# (§6) A sample is made at the start and then every 30 minutes. The optical density is measured of the sample at 600 nm.
# (§7) In the next step, the applicant determined the conditions where optimal measurements could be made. With the help of spectrophotometric techniques the evolution in the optical density of different cultures was followed. […]
# (§8) These cultures were made in parallel with an increasing concentration of penicillin increasing in the culture medium from 0 mg.L^−1, 50 mg.L^−1, 100 mg.L^−1, 200 mg.L^−1, 400 mg.L^−1 to 800 mg.L^−1. The quantities of the ternary complex were calculated and adapted such that all the penicillin in the medium of culture were hydrolyzed in two hours. […]
# TG1-fd Bla I7 [3] = test: as above; conditions: 200 and 800 mg.L^−1 of penicillin; with or without ternary complex according to label; 37° C.
# Procedure: as §5, §6, §7, §8
# MM294-pET26b45 [4] = test: Experiments with selective cultures: mixed culture, colonies counted on Kan dishes; conditions: t = 2 hours, complex + or − according to label
# Procedure: as §1, §2, §3, §4
smiles,measurement,setting,value
CC1(C)S[C@@H]2[C@H](NC(=O)Cc3ccccc3)C(=O)N2[C@H]1C(=O)O [penicillin G],Bacteria.ml^−1 TG1-fd Bla 17,TG1-fd Bla I7 [1]; [Pen] 200 mg·L^−1,1 190 ppm
same,% TG1-fd Bla 17,TG1-fd Bla I7 [1]; [Pen] 200 mg·L^−1,15.8%
same,Bacteria.ml^−1 TG1-fd Bla 17,TG1-fd Bla I7 [1]; [Pen] 800 mg·L^−1,1 500 ppm
same,% TG1-fd Bla 17,TG1-fd Bla I7 [1]; [Pen] 800 mg·L^−1,8.9%
same,Bacteria.ml^−1 TG1-fd Bla I7,"TG1-fd Bla I7 [1]; Table 2 results 1, [Pen] 200 mg·L^−1, t=0 2.05E+07",351.2 ppm
same,% TG1-fd Bla I7,"TG1-fd Bla I7 [1]; Table 2 results 1, [Pen] 200 mg·L^−1, t=0 54.2%",50.3%
same,Bacteria.ml^−1 TG1-fd Bla I7,"TG1-fd Bla I7 [1]; Table 2 results 1, [Pen] 800 mg·L^−1, t=0 2.05E+07",439.0 ppm
same,% TG1-fd Bla I7,"TG1-fd Bla I7 [1]; Table 2 results 1, [Pen] 800 mg·L^−1, t=0 54.2%",44.1%
same,Bacteria.ml^−1 TG1-fd Bla I7,"TG1-fd Bla I7 [1]; Table 2 results 2, [Pen] 200 mg·L^−1, t=0 1.37E+08",48.2 ppm
same,% TG1-fd Bla I7,"TG1-fd Bla I7 [1]; Table 2 results 2, [Pen] 200 mg·L^−1, t=0 60.4%",47.1%
same,Bacteria.ml^−1 TG1-fd Bla I7,"TG1-fd Bla I7 [1]; Table 2 results 2, [Pen] 800 mg·L^−1, t=0 1.37E+08",2.9 ppm
same,% TG1-fd Bla I7,"TG1-fd Bla I7 [1]; Table 2 results 2, [Pen] 800 mg·L^−1, t=0 60.4%",6.9%
same,evolution of optical density of the culture during time,MM294-pET26b45 [2],tendency to decrease
same,evolution of optical density of the culture during time,TG1-fd Bla I7 [3],tendency to decrease
same,Bacteria.ml^−1 MM294-pET26b45,"MM294-pET26b45 [4]; Table 1 results 1, [Pen] 200 mg·L^−1, t=0 6.00E+06",1 667 ppm
same,Bacteria.ml^−1 MM294-pET26b45,"MM294-pET26b45 [4]; Table 1 results 1, [Pen] 800 mg·L^−1, t=0 6.00E+06",557 ppm
same,Bacteria.ml^−1 MM294-pET26b45,"MM294-pET26b45 [4]; Table 2 results 1, [Pen] 200 mg·L^−1, t=0 1.73E+07",410.4 ppm
same,Bacteria.ml^−1 MM294-pET26b45,"MM294-pET26b45 [4]; Table 2 results 1, [Pen] 800 mg·L^−1, t=0 1.73E+07",659.0 ppm
same,Bacteria.ml^−1 MM294-pET26b45,"MM294-pET26b45 [4]; Table 2 results 2, [Pen] 200 mg·L^−1, t=0 9.00E+07",82.2 ppm
same,Bacteria.ml^−1 MM294-pET26b45,"MM294-pET26b45 [4]; Table 2 results 2, [Pen] 800 mg·L^−1, t=0 9.00E+07",60.0 ppm
